Our source for the inhibition values is PMC8041284, “Tunable Methacrylamides for Covalent Ligand Directed Release Chemistry” (Journal of the American Chemical Society, 2021).

The structures appear in SMILES notation. Where two headings read alike, the source gives them in different places. Where a SMILES comes first, the peptide text is derived from it. The star is where a group is joined. Cbz = O=C(OCc1ccccc1)*; CH2F = FC*

The assay concerns the target BTK (Homo sapiens, UniProt Q06187). Put plainly: biochemical.
Where [1] appears, read: read-out: BTK inhibition (%), 0.75 uM BTK, […] probe 3l, 15 min preincubation.

As usually defined, the inhibition is the change of the read-out against control, counted positive when it falls.

BTK, sequence (Q06187 402-655 limits assumed): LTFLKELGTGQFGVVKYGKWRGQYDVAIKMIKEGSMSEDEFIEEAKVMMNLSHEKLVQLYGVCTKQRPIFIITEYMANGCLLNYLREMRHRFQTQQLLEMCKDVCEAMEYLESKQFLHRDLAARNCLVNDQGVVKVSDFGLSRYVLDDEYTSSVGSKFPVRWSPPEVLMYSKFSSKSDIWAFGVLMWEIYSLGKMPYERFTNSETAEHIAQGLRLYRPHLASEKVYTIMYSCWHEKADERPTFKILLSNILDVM

For the molecule `Cc1noc(C)c1-c1ccc(-c2cc(C(N)=O)c(NC(N)=O)s2)c(O[C@H]2CCNC2)c1` [PCM-0215541], the inhibition at 10 µM under setting [1] worked out at 74.1%.
Same read-out and setting: for `O=S(=O)(NCCSSCCNS(=O)(=O)c1cc(Cl)ccc1Cl)c1cc(Cl)ccc1Cl` [PCM-0215542] the value was 5.4%.
On the same count and under the same terms, in the case of `NC(=O)c1nc(F)c[nH]c1=O` [PCM-0215543] it was -6.2%; in that of `CC(=O)c1cc2c(o1)C(=O)c1ccccc1C2=O` [PCM-0215544], -0.8%.
The same measure, in the same setting: for `CC(C)(C)c1ccc(S(=O)(=O)NCc2ccc(C(=O)Nc3cccnc3)cc2)cc1` [PCM-0215545] the value was -2.3%; for `CC(C)C[C@H](NC(=O)[C@H](Cc1ccccc1)C[C@@H](O)[C@H](Cc1ccccc1)NC(=O)OC(C)(C)C)C(=O)N[C@@H](Cc1ccccc1)C(N)=O` [PCM-0215547], 5.4%; for `CCOc1cc(C(C)(C)C)ccc1C1=N[C@@](C)(c2ccc(Cl)cc2)[C@@](C)(c2ccc(Cl)cc2)N1C(=O)N1CCN(CCCS(C)(=O)=O)CC1` [PCM-0215548], 16.2%.
For the molecule `CCOC(=O)c1csc(Nc2ccc(Cl)cc2)n1` [PCM-0215549], the inhibition at 10 µM under setting [1] was determined as 17.8%.
On the same count and under the same terms, in the case of `NC(=O)c1cnc2[nH]ccc2c1NC1[C@@H]2CC3C[C@H]1CC(O)(C3)C2` (stereo partly shown) [PCM-0215550] it was 94.5%.
For the molecule `CN1CCN(c2ccc(C(=O)Nc3n[nH]c4ccc(Cc5cc(F)cc(F)c5)cc34)c(NC3CCOCC3)c2)CC1` [PCM-0215551], the inhibition at 10 µM under setting [1] stood at 103%.
For the molecule `CNS(=O)(=O)Nc1nccc(Cc2c(C)c3ccc(Oc4ncccn4)cc3oc2=O)c1F` [PCM-0215552], the inhibition at 10 µM under setting [1] was found to be 17.9%.
Take `O=C(NCc1ccncc1)C12CC3CC(C1)CC(c1ccc(Cl)cc1)(C3)C2` [PCM-0215553]: the inhibition at 10 µM under setting [1] was -6.9%.
On the same count and under the same terms, in the case of `Fc1ccc(CNc2ncnc3ccc(F)cc23)cc1` [PCM-0215554] it was -17%; in that of `COc1cccc(-n2c(=O)[nH]c3cc(Cl)n(-c4ccc(-c5cccc(OC)c5O)cc4)c3c2=O)c1` [PCM-0215555], 99.3%.
On to `Nc1cccc(S(=O)(=O)N2CCCN(S(=O)(=O)c3ccc4c(c3)OCCO4)CC2)c1` [PCM-0215556], for which, under setting [1], the inhibition at 10 µM is -2.8%.
`CCOc1ccc(Cc2cc([C@@H]3O[C@H](SC)[C@@H](O)[C@H](O)[C@H]3O)ccc2Cl)cc1` [PCM-0215557]: the inhibition at 10 µM under setting [1] is -17.8%.
With `Nc1nc(=S)c2ncn([C@H]3C[C@H](O)[C@@H](CO)O3)c2[nH]1` [PCM-0215558], the inhibition at 10 µM under setting [1] was -7.7%.
On to `C=CC(=O)Nc1ccc(CN2C(=O)N(c3cc(OC)cc(OC)c3)Cc3cnc(Nc4ccc(N5CCN(C)CC5)cc4)nc32)cc1` [PCM-0215559], for which the inhibition at 10 µM under setting [1] came to 88.3%.
On the same count and under the same terms, in the case of `Oc1ccc(Cc2nc3c(Cc4ccccc4)nc(-c4ccc(O)cc4)cn3c2O)cc1` [PCM-0215560] it was 91.1%.
On the same count and under the same terms, in the case of `CCOC(=O)N[C@@H]1CC[C@@H]2[C@@H](C1)C[C@H]1C(=O)O[C@H](C)[C@H]1[C@H]2/C=C/c1ccc(-c2cccc(F)c2)cn1` [PCM-0215561] it was 26.3%; in that of `NC1CCC(N[C@@H]2C[C@H]2c2ccccc2)CC1` (stereo partly shown) [PCM-0215562], 13.1%; in that of `N#CNC(=NCCCCCCOc1ccc(Cl)cc1)Nc1ccncc1` [PCM-0215563], 18.5%.
Still for that read-out and setting: for `CCCN(CCC)C(=O)C1=Cc2ccc(-c3ccc(C(=O)N4CCCC4)cc3)cc2N=C(N)C1` [PCM-0215564] the value was -10.3%; for `COc1ccc(COc2ccc(CC#N)cc2)cc1` [PCM-0215565], -9.3%; for `CC(C)CCn1c(CN2CCN(C(=O)C3CC3)CC2)nc2c1c(=O)n(C)c(=O)n2C` [PCM-0215566], -13.9%.
With `CC(C)(c1ccc(OCC(O)CO)cc1)c1ccc(OCC(O)CCl)cc1` (stereo not shown) [PCM-0215567], the inhibition at 10 µM under setting [1] was -2.3%.
The same measure, in the same setting: in the case of `NCCOCCOCCNC(=O)Cc1ccc(Nc2nc(NCc3ccc(F)cc3)nc(NCC3CCCCC3)n2)cc1` [PCM-0215568] it was -36.3%; in that of `CCCC[S+]([O-])c1sc2nc(-c3cccs3)cc(-c3ccccc3)c2c1N` (stereo not shown) [PCM-0215569], 0.8%.
Same read-out and setting: in the case of `Nc1nc(-c2nn(Cc3ccccc3F)c3ncccc23)ncc1C1CC1` [PCM-0215570] it was -5.4%; in that of `CO[C@@H]1[C@H](OC(=O)/C=C/C=C/C=C/C=C/C(=O)O)CC[C@]2(CO2)[C@H]1[C@@]1(C)O[C@@H]1CC=C(C)C` [PCM-0215572], 3.9%; in that of `CC[C@@](C)(Nc1ccnc(-c2c[nH]c3ncccc23)n1)C(=O)NCC(F)(F)F` [PCM-0215573], 2.1%.
Regarding `COC(=O)N(C)c1c(N)nc(-c2nn(Cc3ccccc3F)c3ncccc23)nc1N` [PCM-0215574], the inhibition at 10 µM under setting [1] is -25.5%.
Same read-out and setting: for `COc1cc2ncnc(Nc3cccc(Cl)c3F)c2cc1OC(=O)N1CCN(C)C[C@H]1C` [PCM-0215575] the value was -19.3%; for `CCOCc1nc2c(N)nc3ccccc3c2n1CC(C)(C)O` [PCM-0215576], 15.2%.
Same read-out and setting: for `CCn1c(=O)c(-c2ccn[nH]2)cc2c(C)nc(N)nc21` [PCM-0215577] the value was 7.6%; for `O=C(Nc1cc(Cl)cc2c1[nH]c1cnccc12)c1cccnc1` [PCM-0215579], 12.4%.
Still for that read-out and setting: in the case of `COc1ccc(C(=O)C2CCN(CC(=O)N(Cc3nc4c(c(=O)[nH]3)COCC4)CC3CC3)CC2)cc1` [PCM-0215580] it was -6.9%.
In the case of `O=C(O)[C@H]1CSC(c2nc3ccc(O)cc3s2)=N1` [PCM-0215581], the inhibition at 10 µM under setting [1] is -16.2%.
Take `Oc1c(F)cc(-c2cnccc2-c2ccc(N3CCOCC3)cc2)cc1F` [PCM-0215582]: the inhibition at 10 µM under setting [1] is -12.4%.
Still for that read-out and setting: for `O=C(O)CNC(=O)c1nc(Cl)c2ccccc2c1O` [PCM-0215583] the value was 10.8%; for `Cc1cn(-c2cc(NC(=O)c3ccc(C)c(Nc4nccc(-c5cnccn5)n4)c3)cc(C(F)(F)F)c2)cn1` [PCM-0215584], -4.1%.
On the same count and under the same terms, for `C[C@H]1CNCCCN1S(=O)(=O)c1cccc2cncc(F)c12` [PCM-0215585] the value was -14.5%; for `CCC(C)SSc1ncc[nH]1` (stereo not shown) [PCM-0215586], 2.3%.
Take `CN1CCN(Cc2ccc(NC(=O)Nc3ccc(Oc4ccnc(N)n4)cc3)cc2C(F)(F)F)CC1` [PCM-0215587]: the inhibition at 10 µM under setting [1] was found to be 31%.
On the same count and under the same terms, in the case of `CC(C)Oc1ccc(-c2nc(-c3cccc4c3CC[C@@H]4NCCO)no2)cc1C#N` [PCM-0215588] it was -5.5%; in that of `Cc1ccc(Nc2ncc3c(n2)N(C)C(=O)N(c2cc(NC(=O)c4cccc(C(F)(F)F)c4)ccc2C)C3)cn1` [PCM-0215589], 36.6%.
On to `CN1CCN(C(=O)/C=C/c2ccc([N+](=O)[O-])o2)CC1` [PCM-0215590], for which, under setting [1], the inhibition at 10 µM is 4.6%.
On the same count and under the same terms, for `CC(C)[C@H](NC(=O)OCc1ccccc1)C(=O)N[C@@H](C)C(=O)N[C@@H](CC(=O)O)C(=O)CF` [PCM-0215591] (Cbz-Val-Ala-Asp-CH2F) the value was -5.4%.
Regarding `O=C(CNc1ccc2ccccc2c1)N/N=C/c1cc(Br)c(O)c(Br)c1O` [PCM-0215592], the inhibition at 10 µM under setting [1] turned out to be 47.9%.
As to `O=c1c(-n2ccnn2)c[nH]n1-c1cc(N2CCOCC2)ncn1` [PCM-0215593], the inhibition at 10 µM under setting [1] was -16.2%.
On to `COc1ccc(S(=O)(=O)Nc2nc(-c3cccc([N+](=O)[O-])c3)cs2)cc1OC` [PCM-0215595], for which the inhibition at 10 µM under setting [1] stood at 7.7%.
Turning to `NC1=NC(=O)/C(=C/c2ccc(O)cc2)S1` [PCM-0215596], the inhibition at 10 µM under setting [1] amounted to 17%.
For `O=C(O)c1ccc(CN2CCC(CN[C@@H]3C[C@H]3c3ccccc3)CC2)cc1` [PCM-0215597], under setting [1], the inhibition at 10 µM is 0.8%.
Still for that read-out and setting: in the case of `CC(C)[C@H](NC(=O)c1ccc2ccccc2n1)C(=O)N[C@@H](CC(=O)O)C(=O)COc1c(F)cccc1F` [PCM-0215598] it was 7.7%; in that of `CC1CC(=O)c2c(ccc3c2C(=O)c2cccc(O)c2C3=O)C1` (stereo not shown) [PCM-0215599], -3.1%.
`O=C(O)CNC(=O)C1C(=O)N(C2CCCCC2)C(=O)N(C2CCCCC2)C1=O` [PCM-0215600]: the inhibition at 10 µM (read-out: BTK inhibition (%)) came out at 13.9%.
`COC1CCC(N2C(=O)CNc3ncc(-c4ccc(C(C)(C)O)nc4)nc32)CC1` (stereo not shown) [PCM-0215601]: the inhibition at 10 µM under setting [1] amounted to 15.9%.
As to `OC(c1cc(-c2ccc(Cl)cc2)nc2ccccc12)C1CCCCN1` (stereo not shown) [PCM-0215603], the inhibition at 10 µM under setting [1] is 19.3%.
For `CC(C)COc1ccc(CNC(=O)N(Cc2ccc(F)cc2)C2CCN(C)CC2)cc1` [PCM-0215604], the inhibition at 10 µM under setting [1] is -3.9%.
Consider `N[C@@H](CSCCB(O)O)C(=O)O` [PCM-0215605], for which, under setting [1], the inhibition at 10 µM was -5.4%.
As for `Cc1[nH]nc(C(F)(F)F)c1Cc1sc2c(c1C(=O)N1C[C@](C)(O)CO1)c(=O)n(C)c(=O)n2C(C)C` [PCM-0215606], the inhibition at 10 µM under setting [1] was 6.9%.
The same measure, in the same setting: for `COc1cc(OCc2cccc(-c3ccccc3)c2C)cc(OC)c1CN1CCCC[C@H]1C(=O)O` [PCM-0215607] the value was -35.2%; for `CN1CCN(c2ccc(-c3ccncc3-c3cc(F)c(O)c(F)c3)cc2)CC1` [PCM-0215608], 6.2%; for `Cn1ncc(Cl)c1-c1cc(C(=O)N[C@H](CN)Cc2ccc(F)c(F)c2)oc1Cl` [PCM-0215609], -7.6%.
Same read-out and setting: for `COc1cccc(-c2cc(NCc3ccc4c(c3)OCO4)nc(N)n2)c1` [PCM-0215610] the value was -7.7%; for `CC(C)(O)c1coc(S(=O)(=O)NC(=O)Nc2c3c(cc4c2CCC4)CCC3)c1` [PCM-0215611], -0.9%.
As for `CN1CCN(c2ccc(Nc3ncc4cc(C#N)c(=O)n(C5CCCC5)c4n3)cc2)CC1` [PCM-0215612], the inhibition at 10 µM under setting [1] was determined as 19.3%.
The same measure, in the same setting: in the case of `N#Cc1cccc(-c2c[nH]c3ncnc(N4CCOCC4)c23)c1` [PCM-0215613] it was -8.3%; in that of `CC(C)(O)CNc1ncc(-c2ccnc(Nc3ccnc(Cl)c3)n2)c(CC2CC2)n1` [PCM-0215614], -14.5%; in that of `Cc1cc(N2C[C@@H](C)N[C@@H](C)C2)ncc1-c1ccc(-c2nc3c(ccn3C)c(=O)[nH]2)cc1` [PCM-0215615], 7.7%.
